*1 amine or outer side, *2 acyl side, *3 side chain or, on linkers, in order; H or OH if unused. Where a SMILES comes first, the peptide text is derived from it. Side-chain parts run from the residue outwards. [ ]: non-standard residue; d: D form. The star is where a group is joined. C20 diacid = O=C(O)CCCCCCCCCCCCCCCCCCC(=O)*; γGlu = O=C(O)[C@H](CCC(=O)[*:2])N[*:1]; AEEA = NCCOCCOCC(=O)O; Aib = CC(C)(N)C(=O)O
Assays:
human GLP-1 R = biological target: T1, human GLP-1 R (Homo sapiens, UniProt P43220); experiment: Human GLP-1 receptor (GLP-1 R) activity assay, cAMP induction (AlphaScreen) in HEK293 cells; format: cell-based; settings: Table 3; most comprehensive data; read-out: hGLP-1-R cAMP EC50 average value
T1 construct: expressed in transfected cells
T1 sequence (P43220 24-463): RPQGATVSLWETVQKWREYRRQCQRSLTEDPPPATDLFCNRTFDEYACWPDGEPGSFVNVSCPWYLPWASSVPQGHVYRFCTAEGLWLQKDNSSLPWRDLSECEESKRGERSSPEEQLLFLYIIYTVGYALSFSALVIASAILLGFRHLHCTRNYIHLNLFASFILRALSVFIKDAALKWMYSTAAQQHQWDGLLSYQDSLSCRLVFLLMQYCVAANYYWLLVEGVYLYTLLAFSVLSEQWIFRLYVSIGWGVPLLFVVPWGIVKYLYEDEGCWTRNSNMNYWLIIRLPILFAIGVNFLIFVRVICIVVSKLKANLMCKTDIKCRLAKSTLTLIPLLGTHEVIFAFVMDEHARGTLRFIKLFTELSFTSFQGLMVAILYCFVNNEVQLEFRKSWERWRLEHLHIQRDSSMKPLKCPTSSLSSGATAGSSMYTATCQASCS
Procedure, shortened: (§1)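 Stable HEK293 clones expressing human GIP R or GLP-1 R, seeded 1 day before; cells washed in Tyrode's buffer (10 mM HEPES, pH 7.4), stimulated, then lysed. cAMP measured by AlphaScreen bead competition (1 h, room temperature, dark). EC50 = concentration giving half-maximal cAMP elevation, from curves of absolute cAMP (nM) vs log concentration.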

human GIP R = biological target: T2, human GIP R (Homo sapiens, UniProt P48546); experiment: Human GIP receptor (GIP R) activity assay, cAMP induction (AlphaScreen) in HEK293 cells; format: cell-based; settings: Table 3; most comprehensive data; read-out: hGIP-R cAMP EC50 average value
T2 construct: expressed in transfected cells
T2 sequence (P48546 22-466): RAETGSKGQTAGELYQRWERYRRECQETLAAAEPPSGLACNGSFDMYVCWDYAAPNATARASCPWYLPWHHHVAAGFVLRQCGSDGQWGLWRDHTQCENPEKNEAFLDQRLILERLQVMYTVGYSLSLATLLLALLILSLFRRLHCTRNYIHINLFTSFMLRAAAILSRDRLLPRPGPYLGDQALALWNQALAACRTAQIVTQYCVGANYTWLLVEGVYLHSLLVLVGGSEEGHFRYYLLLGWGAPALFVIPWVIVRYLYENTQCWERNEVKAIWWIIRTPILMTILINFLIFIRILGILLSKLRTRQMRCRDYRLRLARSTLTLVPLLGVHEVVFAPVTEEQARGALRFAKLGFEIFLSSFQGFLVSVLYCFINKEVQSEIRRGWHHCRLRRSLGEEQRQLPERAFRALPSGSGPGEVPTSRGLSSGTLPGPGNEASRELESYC
Procedure, shortened: as §1

Compound	EC50 (human GLP-1 R)	EC50 (human GIP R)
CC[C@H](C)[C@H](NC(=O)[C@H](CO)NC(=O)[C@H](Cc1ccc(O)cc1)NC(=O)[C@H](CC(=O)O)NC(=O)[C@H](CO)NC(=O)[C@@H](NC(=O)[C@H](Cc1ccccc1)NC(=O)[C@@H](NC(=O)CNC(=O)[C@H](CCC(=O)O)NC(=O)C(C)(C)NC(=O)[C@@H](N)Cc1ccc(O)cc1)[C@@H](C)O)[C@@H](C)O)C(=O)N[C@@H](Cc1ccc(O)cc1)C(=O)N[C@@H](CC(C)C)C(=O)N[C@@H](CC(=O)O)C(=O)N[C@@H](CCCCN)C(=O)N[C@@H](CCCCNC(=O)COCCOCCNC(=O)COCCOCCNC(=O)CC[C@H](NC(=O)CCCCCCCCCCCCCCCCCCC(=O)O)C(=O)O)C(=O)N[C@@H](C)C(=O)N[C@@H](CCC(N)=O)C(=O)N[C@@H](CCCNC(=N)N)C(=O)N[C@@H](CCC(=O)O)C(=O)N[C@@H](Cc1ccccc1)C(=O)N[C@H](C(=O)N[C@@H](CCC(=O)O)C(=O)N[C@@H](Cc1c[nH]c2ccccc12)C(=O)N[C@@H](CC(C)C)C(=O)N[C@@H](CC(C)C)C(=O)N[C@@H](C)C(=O)N[C@@H](CCC(N)=O)C(=O)NCC(=O)N1CCC[C@H]1C(=O)N[C@@H](CO)C(=O)N[C@@H](CO)C(=O)NCC(=O)N[C@@H](C)C(=O)N1CCC[C@H]1C(=O)N1CCC[C@H]1C(=O)N1CCC[C@H]1C(=O)N[C@@H](CO)C(N)=O)C(C)C [Compound 46] (H-Y[Aib]EGTFTSDYSIYLDKK([AEEA-AEEA-γGlu-C20 diacid])AQREFVEWLLAQGPSSGAPPPS-NH2)	10 pM	6 pM
CC[C@H](C)[C@H](NC(=O)[C@H](CO)NC(=O)[C@H](Cc1ccc(O)cc1)NC(=O)[C@H](CC(=O)O)NC(=O)[C@H](CO)NC(=O)[C@@H](NC(=O)[C@H](Cc1ccccc1)NC(=O)[C@@H](NC(=O)CNC(=O)[C@H](CCC(=O)O)NC(=O)C(C)(C)NC(=O)[C@@H](N)Cc1ccc(O)cc1)[C@@H](C)O)[C@@H](C)O)C(=O)N[C@@H](C)C(=O)N[C@@H](CC(C)C)C(=O)N[C@@H](CC(=O)O)C(=O)N[C@@H](CCCCN)C(=O)N[C@@H](CCCCNC(=O)COCCOCCNC(=O)COCCOCCNC(=O)CC[C@H](NC(=O)CCCCCCCCCCCCCCCCCCC(=O)O)C(=O)O)C(=O)N[C@@H](C)C(=O)N[C@@H](CCC(N)=O)C(=O)N[C@@H](CCCNC(=N)N)C(=O)N[C@@H](CCC(=O)O)C(=O)N[C@@H](Cc1ccccc1)C(=O)N[C@H](C(=O)N[C@@H](CCC(=O)O)C(=O)N[C@@H](Cc1c[nH]c2ccccc12)C(=O)N[C@@H](CC(C)C)C(=O)N[C@@H](CC(C)C)C(=O)N[C@@H](C)C(=O)N[C@@H](CCC(N)=O)C(=O)NCC(=O)N1CCC[C@H]1C(=O)N[C@@H](CO)C(=O)N[C@@H](CO)C(=O)NCC(=O)N[C@@H](C)C(=O)N1CCC[C@H]1C(=O)N1CCC[C@H]1C(=O)N1CCC[C@H]1C(=O)N[C@@H](CO)C(N)=O)C(C)C [Compound 47] (H-Y[Aib]EGTFTSDYSIALDKK([AEEA-AEEA-γGlu-C20 diacid])AQREFVEWLLAQGPSSGAPPPS-NH2)	16 pM	5 pM
CC[C@H](C)[C@H](NC(=O)[C@H](CO)NC(=O)[C@H](Cc1ccc(O)cc1)NC(=O)[C@H](CC(=O)O)NC(=O)[C@H](CO)NC(=O)[C@@H](NC(=O)[C@H](Cc1ccccc1)NC(=O)[C@@H](NC(=O)CNC(=O)[C@H](CCC(=O)O)NC(=O)C(C)(C)NC(=O)[C@@H](N)Cc1ccc(O)cc1)[C@@H](C)O)[C@@H](C)O)C(=O)N[C@@H](C)C(=O)N[C@@H](CC(C)C)C(=O)N[C@@H](CC(=O)O)C(=O)N[C@@H](CCCCN)C(=O)N[C@@H](CCCCNC(=O)COCCOCCNC(=O)COCCOCCNC(=O)CC[C@H](NC(=O)CCCCCCCCCCCCCCCCCCC(=O)O)C(=O)O)C(=O)N[C@@H](C)C(=O)N[C@@H](CCC(N)=O)C(=O)N[C@@H](CCCCN)C(=O)N[C@@H](CCC(=O)O)C(=O)N[C@@H](Cc1ccccc1)C(=O)N[C@H](C(=O)N[C@@H](CCC(=O)O)C(=O)N[C@@H](Cc1c[nH]c2ccccc12)C(=O)N[C@@H](CC(C)C)C(=O)N[C@@H](CC(C)C)C(=O)N[C@@H](C)C(=O)N[C@@H](CCC(N)=O)C(=O)NCC(=O)N1CCC[C@H]1C(=O)N[C@@H](CO)C(=O)N[C@@H](CO)C(=O)NCC(=O)N[C@@H](C)C(=O)N1CCC[C@H]1C(=O)N1CCC[C@H]1C(=O)N1CCC[C@H]1C(=O)N[C@@H](CO)C(N)=O)C(C)C [Compound 48] (H-Y[Aib]EGTFTSDYSIALDKK([AEEA-AEEA-γGlu-C20 diacid])AQKEFVEWLLAQGPSSGAPPPS-NH2)	52 pM	6 pM
CC[C@H](C)[C@H](NC(=O)[C@H](CO)NC(=O)[C@H](Cc1ccc(O)cc1)NC(=O)[C@H](CC(=O)O)NC(=O)[C@H](CO)NC(=O)[C@@H](NC(=O)[C@H](Cc1ccccc1)NC(=O)[C@@H](NC(=O)CNC(=O)[C@H](CCC(=O)O)NC(=O)C(C)(C)NC(=O)[C@@H](N)Cc1ccc(O)cc1)[C@@H](C)O)[C@@H](C)O)C(=O)N[C@@H](C)C(=O)N[C@@H](CC(C)C)C(=O)N[C@@H](CC(=O)O)C(=O)N[C@@H](CCCCN)C(=O)N[C@@H](CCCCNC(=O)COCCOCCNC(=O)COCCOCCNC(=O)CC[C@H](NC(=O)CCCCCCCCCCCCCCCCCCC(=O)O)C(=O)O)C(=O)N[C@@H](C)C(=O)N[C@@H](CCC(N)=O)C(=O)N[C@@H](CCCCN)C(=O)N[C@@H](CCC(=O)O)C(=O)N[C@@H](Cc1ccccc1)C(=O)N[C@H](C(=O)N[C@@H](CCC(=O)O)C(=O)N[C@@H](Cc1c[nH]c2ccccc12)C(=O)N[C@@H](CC(C)C)C(=O)N[C@@H](CC(C)C)C(=O)N[C@@H](C)C(=O)N[C@@H](C)C(=O)NCC(=O)N1CCC[C@H]1C(=O)N[C@@H](CO)C(=O)N[C@@H](CO)C(=O)NCC(=O)N[C@@H](C)C(=O)N1CCC[C@H]1C(=O)N1CCC[C@H]1C(=O)N1CCC[C@H]1C(=O)N[C@@H](CO)C(N)=O)C(C)C [Compound 49] (H-Y[Aib]EGTFTSDYSIALDKK([AEEA-AEEA-γGlu-C20 diacid])AQKEFVEWLLAAGPSSGAPPPS-NH2)	53 pM	9 pM
CC[C@H](C)[C@H](NC(=O)[C@H](CO)NC(=O)[C@H](Cc1ccc(O)cc1)NC(=O)[C@H](CC(=O)O)NC(=O)[C@H](CO)NC(=O)[C@@H](NC(=O)[C@H](Cc1ccccc1)NC(=O)[C@@H](NC(=O)CNC(=O)[C@H](CCC(=O)O)NC(=O)C(C)(C)NC(=O)[C@@H](N)Cc1ccc(O)cc1)[C@@H](C)O)[C@@H](C)O)C(=O)N[C@@H](C)C(=O)N[C@@H](CC(C)C)C(=O)N[C@@H](CC(=O)O)C(=O)N[C@@H](CCCCN)C(=O)N[C@@H](CCCCNC(=O)COCCOCCNC(=O)COCCOCCNC(=O)CC[C@H](NC(=O)CCCCCCCCCCCCCCCCCCC(=O)O)C(=O)O)C(=O)N[C@@H](C)C(=O)N[C@@H](CCC(N)=O)C(=O)N[C@@H](CCCNC(=N)N)C(=O)N[C@@H](C)C(=O)N[C@@H](Cc1ccccc1)C(=O)N[C@H](C(=O)N[C@@H](CCC(=O)O)C(=O)N[C@@H](Cc1c[nH]c2ccccc12)C(=O)N[C@@H](CC(C)C)C(=O)N[C@@H](CC(C)C)C(=O)N[C@@H](C)C(=O)N[C@@H](CCC(N)=O)C(=O)NCC(=O)N1CCC[C@H]1C(=O)N[C@@H](CO)C(=O)N[C@@H](CO)C(=O)NCC(=O)N[C@@H](C)C(=O)N1CCC[C@H]1C(=O)N1CCC[C@H]1C(=O)N1CCC[C@H]1C(=O)N[C@@H](CO)C(N)=O)[C@@H](C)CC [Compound 50] (H-Y[Aib]EGTFTSDYSIALDKK([AEEA-AEEA-γGlu-C20 diacid])AQRAFIEWLLAQGPSSGAPPPS-NH2)	15 pM	7 pM
